{"source": "patent US20220331267A1", "about": "“METHODS AND COMPOSITIONS FOR TREATMENT OF DEMYELINATING DISORDERS” (Rush University Medical Center, priority 2019, published 2022)", "key": {"[1]": {"biological_target": "T1, PPARβ LBD (Homo sapiens, UniProt Q03181)", "T1 sequence (Q03181 211-439 limits assumed)": "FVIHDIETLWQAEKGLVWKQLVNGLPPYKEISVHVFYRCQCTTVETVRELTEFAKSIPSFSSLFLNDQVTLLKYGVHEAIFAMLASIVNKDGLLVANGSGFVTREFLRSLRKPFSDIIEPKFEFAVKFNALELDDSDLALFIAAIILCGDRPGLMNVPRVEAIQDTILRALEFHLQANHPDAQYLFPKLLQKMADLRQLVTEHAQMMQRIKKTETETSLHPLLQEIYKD", "experiment": "TR-FRET (Lanthascreen PPAR-β coactivator assay)", "protocol": "The shift of each melting curve was calculated by subtracting the melting temperature (Tm) of PPARβ protein+ligand with Tm of PPARβ protein alone. Any shift (ΔTm) with more than 2° C. would be considered as significant.\nTR-FRET analysis: TR-FRET assay was performed using Lanthascreen TR-FRET PPAR-β coactivator assay kit (Cat #PV4685). […] The entire reaction was set up in corning 96 well-plate followed by incubation in a dark place for 30 mins, and then analyzed “Victor X5” machine equipped with dichroic mirror. The excitation wavelength and emission wavelength were set at 340 nm and 540 nm wavelength respectively."}, "[2]": {"tested_on": "mouse primary OPCs", "experiment": "Myelination of OPCs on polycaprolactone nanofiber matrix (MBP staining)", "type": "cell-based", "conditions": "1 μM DBB, 0.5 μM DBP, 0.5 μM MePA", "experimental": "(§1) FIG. 1A-1T. The role of DBB, DBP and MePA in the differentiation of OPC into oligodendrocytes and myelination. […] Briefly, mouse primary OPCs were treated with different concentrations of molecules for 1 hr, lysed and measured for DNA probe binding activity of PPARβ. […] Benzene was included as negative control. **p<0.01 vs. control for PLP, MOG, MBP, and CNPase. Results are mean±SD of three independent experiments. (FIG. 1G) Immunoblot followed by (FIG. 1H) relative densitometric analyses of PLP and MBP in mouse primary OPCs treated with increasing concentrations of DBB for 18 hrs. Band intensity was measured with image J software and then normalized with respective actin band. *p<0.05 (=0.041) vs. PLP control and *p<0.05 (=0.026) vs. MBP control. […] (N) Mean fluorescence intensity (MFI) of MBP was measured from total 15 cells per group with three cells from 5 different images per group. […] (FIG. 1Q) Mean fluorescence intensity (MFI) of MBP was measured from total 15 cells per group with three cells from 5 different images per group. […] (FIG. 1T) Numbers of MBP-ir cells of different treatment groups were counted per sq.mm of nanofiber matrix and presented as a histogram. […]\nThe essential role of PPARβ in DBB-, DBP- and MePa-mediated differentiation of OPCs to oligodendrocytes and myelination. […] After that, PPRE-luciferase activity was assessed. […]"}, "[3]": {"biological_target": "T2, GFP-PPARα LBD (Homo sapiens, UniProt Q07869)", "T2 construct": "incubated with recombinant GFP-PPARα LBD and GFP-PPARβ LBD proteins", "T2 sequence (Q07869 239-466 limits assumed)": "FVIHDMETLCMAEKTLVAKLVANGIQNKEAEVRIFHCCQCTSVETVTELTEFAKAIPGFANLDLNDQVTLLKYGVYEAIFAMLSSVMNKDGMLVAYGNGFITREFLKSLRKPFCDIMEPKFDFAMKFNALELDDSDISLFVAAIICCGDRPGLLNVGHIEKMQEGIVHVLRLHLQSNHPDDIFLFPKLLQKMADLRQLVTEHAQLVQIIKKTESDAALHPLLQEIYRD", "experiment": "GFP-affinity purification of cerebellar lysate with GFP-PPARα LBD, then EI-GCMS", "type": "binding", "conditions": "PPARα pulled-down cerebellar lysate", "from_the_text": "Identification of unique cerebellar ligands of PPARβ: PPARβ regulates the expression of myelin genes in vitro in cultured oligodendrocytes (19). However, it is not known if PPARβ regulates the expression of these genes in cerebellum, one of the heavily myelinated regions of the brain. To test the expression of myelin proteins, first we performed dual immunofluorescence analyses of myelin marker MBP together with PPARβ in the cerebellar tissue of wild-type (n=3), Pparb-null (n=3) and Ppara-null (n=3) mice. […] Moreover, DAB immunostaining of MBP and immunoblot analyses of other myelin genes including PLP and MOG have corroborated that PPARβ indeed is involved in the expression of myelin genes in cerebellum. […] To test that, we performed a GFP-based affinity purification procedure (25,29) in which cerebellar lysate of wild-type cerebellum was incubated with recombinant GFP-PPARα LBD and GFP-PPARβ LBD proteins, then passed through GFP column, eluted, fractionated with chloroform-methanol procedure, and finally analyzed for small molecules in the chloroform fraction with electron ionization gas chromatography (EI-GCMS) method as described elsewhere (29). […] Accordingly, we detected two matching bands of both GFP-PPARαLBD and GFP-PPARβLBD, both having mol. wt. of 64 kDa, negating the possibility of unequal loading of sample in MS column. […]"}, "[4]": {"biological_target": "T3, GFP-PPARβ LBD (Homo sapiens, UniProt Q03181)", "T3 construct": "incubated with recombinant GFP-PPARα LBD and GFP-PPARβ LBD proteins", "T3 sequence (Q03181 211-439 limits assumed)": "T1 sequence (Q03181 211-439 limits assumed)", "experiment": "GFP-affinity purification of cerebellar lysate with GFP-PPARβ LBD, then EI-GCMS", "type": "binding", "conditions": "PPARβ pulled-down cerebellar lysate", "protocol": "To test that, we performed a GFP-based affinity purification procedure (25,29) in which cerebellar lysate of wild-type cerebellum was incubated with recombinant GFP-PPARα LBD and GFP-PPARβ LBD proteins, then passed through GFP column, eluted, fractionated with chloroform-methanol procedure, and finally analyzed for small molecules in the chloroform fraction with electron ionization gas chromatography (EI-GCMS) method as described elsewhere (29). […] A part of the eluted fraction was electrophoresed and stained with Coomassie blue to nullify the loading error of GFP-PPARαLBD and GFP-PPARβ LBD used for affinity purification.\nGCMS analyses: Ligand detection: A JEOL GCMate II (JEOL USA, Peabody Mass.) mass spectrometer was used in ligand detection experiments. The gas chromatograph (GC) was an Agilent 6890Plus (Wilmington Del.) equipped with a G1513A auto-injector with 100 vial sample tray connected to a G1512A controller. The gas chromatography column was a fused silica capillary column with a nonpolar 5% phenyl 95% dimethylpolysiloxane phase (Agilent HP-5 ms), 30 meters long, 0.25 mm internal diameter, 0.25 μm film thickness. The carrier gas was Helium (99.9995% Research Grade) run through a STG triple filter (Restek Corp.) at a constant flow rate 1.1 mL/min. […]"}, "[5]": {"biological_target": "T4, GFPflpparβ (Mus musculus, UniProt P35396)", "T4 construct": "host or cells: Pparb-null mouse primary OPCs (lentiviral transduction)", "T4 sequence (P35396 1-440)": "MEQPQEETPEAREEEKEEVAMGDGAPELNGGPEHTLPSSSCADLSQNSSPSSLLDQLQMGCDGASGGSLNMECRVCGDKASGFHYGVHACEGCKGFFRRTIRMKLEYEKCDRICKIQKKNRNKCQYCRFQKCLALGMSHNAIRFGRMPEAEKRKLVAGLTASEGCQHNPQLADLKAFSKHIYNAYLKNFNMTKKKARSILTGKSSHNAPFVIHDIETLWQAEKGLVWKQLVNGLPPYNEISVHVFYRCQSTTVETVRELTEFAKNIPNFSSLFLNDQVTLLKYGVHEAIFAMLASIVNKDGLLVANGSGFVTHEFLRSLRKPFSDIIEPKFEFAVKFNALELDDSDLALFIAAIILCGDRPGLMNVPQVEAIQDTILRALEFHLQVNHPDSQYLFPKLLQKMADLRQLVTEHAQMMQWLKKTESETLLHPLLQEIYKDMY", "experiment": "GFP-affinity purification and GCMS of Pparb-null OPCs transduced with GFPflpparβ", "type": "binding", "from_the_text": "Therefore, next, we wanted to confirm these interactions in vitro in a cell-bound system. To test that, Pparb-null mouse primary OPCs were isolated from P1 murine neonates, infected with viral particles of GFP, GFPflpparb, GFPV304Mpparb, GFPH412Lpparb constructs for 48 hrs. After that, OPCs were homogenized, passed through the GFP-affinity column, eluted, fractionated with chloroform-methanol, and finally analyzed with GCMS to quantify these ligands. […] Throughout these analyses, we used dodecane as an internal standard.\nSample preparation: After treatment, mouse primary OPCs were homogenized in ice-cold nondetergent hypotonic buffer [10 mM HEPES (pH 7.9), 1.5 mM MgCl2, 10 mM KCl, 100 mM DTT, protease and phosphatase inhibitor cocktail]. After 10 min of additional incubation in the hypotonic buffer, the homogenate was centrifuged at 8,000 g at 4° C. for 10 min. […] The organic phase was collected, evaporated in the speedvac, reconstituted with 30 μL chloroform, and finally analyzed with GCMS. […] After that, the eluate was collected from the column with 5M NaCl solution, concentrated with PD-10 desalting column and analyzed for GCMS."}, "[6]": {"tested_on": "mouse primary OPCs", "experiment": "Double immunofluorescence (NG2/MBP, A2B5/PLP): differentiation of OPCs to oligodendrocytes", "type": "cell-based", "conditions": "1 μM DBB, 0.5 μM DBP, 0.5 μM MePA, 24 hrs", "experimental": "as §1\nDBB, DBP and MePA stimulate the differentiation of OPC to oligodendrocytes and promote myelination. […] After that, cells were lysed and assessed for PPRE-luciferase activity. […]"}, "[7]": {"conditions": "adjusted to internal standard peak"}}, "note": "pEC50: −log10 of the molar value."}
{"smiles": "CCCCCCCCCCCCCCCC(=O)OC", "note": "[MePA, Methyl palmitate]", "values": [{"measurement": "pEC50", "setting": "[1]", "result": 7.14}, {"measurement": "MBP-ir cell bodies per sq.mm of nanofiber matrix (maturation of oligodendrocytes)", "setting": "[2]", "result": "stimulated the maturation of oligodendrocytes"}, {"measurement": "myelin formation on nanofibers", "setting": "[2]; 24 hrs", "result": "promote myelin formation"}, {"measurement": "% RA", "setting": "[3]", "result": 0, "unit": "%"}, {"measurement": "Relative abundance", "setting": "[3]; [7]", "result": 0}, {"measurement": "% RA", "setting": "[4]", "result": 40.678, "unit": "%"}, {"measurement": "Relative abundance", "setting": "[4]; [7]", "result": 0.4068}, {"measurement": "Adjusted Peak Area", "setting": "[5]; ligand peak area divided by dodecane peak", "result": 0.0108}, {"measurement": "RA", "setting": "[5]; relative abundance", "result": 1}, {"measurement": "differentiation of OPCs into oligodendrocytes", "setting": "[6]", "result": "stimulate the differentiation of OPCs into oligodendrocytes"}]}
